Experiments:
[1] = target: thrombin (Homo sapiens, UniProt P00734); assay: Kinetic evaluation of thrombin inhibition (Lineweaver-Burke and Dixon plot analyses); assay type: biochemical
Excerpt: Using a known amount of thrombin, a standard curve is constructed with known amount of hirudin or hirudin analog by adding hirudin to thrombin, and measuring residual thrombin activity using […] substrate S-2238. Thrombin inhibition by derivatized hirudin (hirudin-SPDP) or immobilized hirudin (the polyethylene terphthalate material with immobilized hirudin) is then compared to nonderivatized hirudin values by equating ED50 values using 10 NIH units/ml thrombin, and measuring residual thrombin activity.
Peak 3 conjugate material (shown in FIG. 4C and lane A in FIG. 5A) is evaluated by kinetic analysis. Kinetic evaluation of the ability of the peak 3 conjugate to inhibit thrombin activity is compared to hirudin alone. […] These determinations are made by Lineweaver-Burke and Dixon plot analyses. The inhibitor constant for hirudin is determined to be 1.7×10^-12. The inhibitor constant for the conjugate is 1.8×10^-11. There is a 10-fold loss in binding affinity when comparing the Ki values of hirudin to the conjugate, respectively. In a biologic or physiologic system, the different abilities of hirudin and conjugate to inhibit thrombin are insignificant.

[2] = test system: thrombin-mediated platelet aggregation; assay: Inhibition of thrombin-mediated platelet aggregation and simultaneous ATP release (whole blood platelet aggregometer); assay type: cell-based; conditions: Thrombin 0.1 NIHU
Excerpt: Investigation of the biologic activity of hirudin covalently linked to albumin is examined by inhibiting thrombin-mediated platelet aggregation. A whole blood platelet aggregometer (Chronolog Corp., Havertown, PA) is used to measure platelet aggregation and simultaneous ATP release. Platelet aggregation is selected to quantify inhibition of thrombin events other than fibrin formation.

[3] = test system: blood; assay: Thrombin time of blood containing inhibitor; conditions: 0.2 ATU/ml blood sample
Description: In addition, hirudin conjugated to a stable, soluble molecule increases hirudin stability in the bloodstream. For example, 0.1 anti-thrombin units (ATU) of hirudin conjugate standard/ml of blood increases normal thrombin time to 45 seconds. A blood sample containing 0.2 ATU of unconjugated hirudin/ml increases patient thrombin time to 90 seconds. Using this knowledge, the amount of hirudin in a patient's plasma can be calculated to be 0.15 ATU if the patient's thrombin time is determined to be 68 seconds.

hirudin
type of inhibition [1]: noncompetitive inhibitor of a linear mixed type
% Inh. ATP Release ([2]; inhibitor 0.12 ATU): 56%
% Inh. Plate. Aggreg. ([2]; inhibitor 0.12 ATU): 52%
ATP Release ([2]; inhibitor 0.12 ATU): 0.60 µM
Aggreg. OHMS/6 min. ([2]; inhibitor 0.12 ATU): 15.7 OHMS/6 min.
% Inh. ATP Release ([2]; inhibitor 1.15 ATU): 100%
% Inh. Plate. Aggreg. ([2]; inhibitor 1.15 ATU): 100%
ATP Release ([2]; inhibitor 1.15 ATU): 0 µM
Aggreg. OHMS/6 min. ([2]; inhibitor 1.15 ATU): 0 OHMS/6 min.
thrombin time [3]: 90 s

— patent publication US5112615A, “Soluble hirudin conjugates” (New England Deaconess Hospital Corporation, priority 1990, dated 1992)
